# Results: US5674905A, “Bicyclooctane and bicycloheptane derivatives” (James Black Foundation Limited, priority 1992, dated 1997)
# Molecular target: T1, CCKB receptor (Mus musculus, UniProt P56481)
# T1 construct: The cortex was dissected, weighed and homogenised in 40 ml ice-cold buffer; from tissue; host or cells: cerebral cortex membranes of male CD1 mice (Charles River)
# T1 sequence (P56481 1-453): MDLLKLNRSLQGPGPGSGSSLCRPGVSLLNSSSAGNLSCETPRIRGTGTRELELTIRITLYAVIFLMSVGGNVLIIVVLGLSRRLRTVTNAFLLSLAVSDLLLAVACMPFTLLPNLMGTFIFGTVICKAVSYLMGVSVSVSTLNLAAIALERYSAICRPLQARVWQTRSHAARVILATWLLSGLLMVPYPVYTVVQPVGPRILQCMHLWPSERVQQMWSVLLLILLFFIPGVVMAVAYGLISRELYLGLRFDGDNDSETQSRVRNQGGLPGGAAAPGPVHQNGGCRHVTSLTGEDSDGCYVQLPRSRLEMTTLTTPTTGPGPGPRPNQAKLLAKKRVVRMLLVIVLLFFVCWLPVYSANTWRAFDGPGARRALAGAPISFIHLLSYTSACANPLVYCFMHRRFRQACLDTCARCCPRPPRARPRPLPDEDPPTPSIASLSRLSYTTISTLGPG
# Assay: radioligand binding assay at the CCKB receptor in mouse cortical membranes ([125I]-CCK8S)
# Conditions: 150 min at 21±3°
# Experimental: The compounds of the examples were tested for binding at the CCKB receptor in mouse cortical membranes by means of a radioligand binding assay. The procedure was as follows:
# The whole brains from male mice (CD1 22-25 g; Charles River) were removed and placed in ice-cold buffer (pH7.2 @ 21±3 °) of the following composition (mM); 10 HEPES, 130 NaCl, 4.7 KCl, 5 MgCl2, 1 EDTA and containing 0.25 g.1^-1 bacitracin. The cortex was dissected, weighed and homogenised in 40 ml ice-cold buffer using a Teflon-in-glass homogeniser. The homogenate was centrifuged at 39,800 g for 20 min at @ 4°, the supernatant discarded and the pellet resuspended by homogenisation in fresh buffer. The homogenate was recentrifuged (39,800 g; 20 min @4°) and the final pellet was resuspended in HEPES buffer to give a tissue concentration of 2 mg.ml^-1 (original wet weight).
# The membranes ([…]) were incubated for 150 min at 21±3° in a final volume of 0.5 ml with HEPES buffer containing [^125 I]-CCK8S (0.05 ml; 200 pM NEN 2200 Ci.mmol^-1) and competing compound. Total and non-specific binding of [^125 I]-CCK8S were defined using 0.05 ml of buffer and 0.05 ml of […] L-365,260, respectively. The assay was terminated by rapid filtration through pre-soaked Whatman GF/B filters using a Brandell Cell harvester. The filters were washed (3×3 ml) with ice-cold 50 mM Tris-HC1 (pH7.4 @ 4° C.) and bound radioactivity determined by counting (1 min.) in a gamma-counter.
row,SMILES,CCKB pKi
1,"O=C(O)CNC(=O)[C@@H]1CCCN1C(=O)C1C2CCC(c3ccccc32)C1C(=O)NCC12CC3CC(CC(C3)C1)C2 (stereo partly drawn) [Example 45, cis-exo-7-(2R-carboxymethylaminocarbonylpyrrolidinocarbonyl)-8-(1-adamantylmethylaminocarbonyl)-2,3-benzobicyclo[2.2.2]octane]",5.6
2,"O=C(NCC12CC3CC(CC(C3)C1)C2)C1C2CC(c3ccccc32)C1C(=O)N1CCC[C@@H]1C(=O)O (mixture of isomers) [Example 59, (±)-endo-cis-6-(2R-carboxy-pyrrolidinocarbonyl)-7-(1-adamantylmethylaminocarbonyl)-2,3-benzobicyclo[2.2.1]heptane]",5.5

# Same assay, conditions: 150 min at 21±3°, read-out: CCKB pKi (converted)
row,SMILES,Ki [nM]
1,"O=C(O)CNC(=O)[C@H]1CCCN1C(=O)C1C2CCC(c3ccccc32)C1C(=O)NCC12CC3CC(CC(C3)C1)C2 (stereo partly drawn) [Example 46, cis-endo-7-(2R-carboxymethylaminocarbonyl-pyrrolidinocarbonyl)-8-(1-adamantylmethylaminocarbonyl)-2,3-benzobicyclo[2.2.2]octane]",398
2,"O=C(NCC12CC3CC(CC(C3)C1)C2)C1C2C=CC(CC2)C1C(=O)N1CCC[C@@H]1C(=O)O (mixture of isomers) [Example 33, cis-(±)-2-(1-R-carboxy-pyrrolidinocarbonyl)-3-(1-adamantylmethylaminocarbonyl)-bicyclo[2.2.2]oct-5-ene]",15800
3,"O=C(O)[C@@H]1[C@H](C(=O)NCC2CCCCC2)[C@H]2C=C[C@@H]1c1ccccc12 (relative stereo) [Example 4, endo-(±)-cis-8-(1-cyclohexylmethylaminocarbonyl)-5,6-benzobicyclo[2.2.2]oct-2-ene-7-carboxylic acid]",39800
4,"O=C(NCC12CC3CC(CC(C3)C1)C2)[C@@H]1[C@H](C(=O)O)[C@@H]2C=C[C@H]1c1ccccc12 (relative stereo) [Example 1, exo-(±)-cis-8-(1-adamantylmethylaminocarbonyl)-5,6-benzobicyclo[2.2.2]oct-2-ene-7-carboxylic acid]",3980
5,"C[C@H](NC(=O)[C@H]1CCCN1C(=O)C1C2CCC(c3ccccc32)C1C(=O)NCC12CC3CC(CC(C3)C1)C2)C(=O)O (stereo partly drawn) [Example 40, cis-exo-7-(2R-(1S-carboxyethylaminocarbonyl)-pyrrolidinocarbonyl)-8-(1-adamantylmethylaminocarbonyl)-2,3-benzobicyclo-[2.2.2.]octane]",7940
6,"C[C@H](NC(=O)[C@H]1CCCN1C(=O)C1C2CCC(c3ccccc32)C1C(=O)NCC12CC3CC(CC(C3)C1)C2)C(=O)O (stereo partly drawn) [Example 48, cis-endo-7-(2R-(1S-carboxyethylaminocarbonyl)-pyrrolidinocarbonyl)-8-(1-adamantylmethylaminocarbonyl)-2,3-benzobicyclo[2.2.2]octane]",794
7,"O=C(O)C1C2CC(c3ccccc32)C1C(=O)NCC12CC3CC(CC(C3)C1)C2 (mixture of isomers) [Example 57, endo-cis-(±)-7-(1-adamantylmethylaminocarbonyl)-2,3-benzobicyclo[2.2.1]hept-6-carboxylic acid]",5010
8,"COC(=O)[C@H]1CCCN1C(=O)C1C2C=CC(c3ccccc32)C1C(=O)NCC12CC3CC(CC(C3)C1)C2 (stereo partly drawn) [Example 32, exo-cis-7-(2-R-methoxycarbonyl-pyrrolidinocarbonyl)-8-(1-adamantylmethylaminocarbonyl)-5,6-benzo-bicyclo[2.2.2]oct-2-ene]",316
9,"C[C@@H](NC(=O)[C@@H]1CCCN1C(=O)C1C2CCC(c3ccccc32)C1C(=O)NCC12CC3CC(CC(C3)C1)C2)C(=O)O (stereo partly drawn) [Example 44, cis-exo-7-(2S-(1R-carboxyethylaminocarbonyl)-pyrrolidinocarbonyl)-8-(1-adamantylmethylaminocarbonyl)-2,3-benzobicyclo[2.2.2]octane]",1000
10,"COC(=O)[C@@H]1CCCN1C(=O)C1C2c3ccccc3C(c3cc4ccccc4cc32)C1C(=O)NCC12CC3CC(CC(C3)C1)C2 (stereo partly drawn) [Example 21, endo and exo cis-7-(2-S-methoxy-carbonylpyrrolidinocarbonyl)-8-(1-adamantylmethylaminocarbonyl)-2,3-benzo-5,6-(2,3-naphtho) bicyclo-[2.2.2]octane]",398
11,"C[C@@H](NC(=O)[C@@H]1CCCN1C(=O)C1C2CCC(c3ccccc32)C1C(=O)NCC12CC3CC(CC(C3)C1)C2)C(=O)O (stereo partly drawn) [Example 50, cis-endo-7-(2S-(1R-carboxyethylaminocarbonyl)-pyrrolidinocarbonyl)-8-(1-adamantylmethylaminocarbonyl)-2,3-benzobicyclo[2.2.2]octane]",2510
12,O=C(NCC12CC3CC(CC(C3)C1)C2)C1C(C(=O)N2CCC[C@@H]2C(=O)O)C2C=CC1C2(c1ccccc1)c1ccccc1 (mixture of isomers) [Example 53],1580
13,"O=C(NCC12CC3CC(CC(C3)C1)C2)C1C2c3ccccc3C(c3cc4ccccc4cc32)C1C(=O)N1CCC[C@@H]1C(=O)O (stereo partly drawn) [Example 20, endo and exo cis-7-(2-R-carboxypyrrolidinocarbonyl)-8-(1-adamantylmethylaminocarbonyl)-2,3-benzo-5,6-(2,3-naphtho)bicyclo[2.2.2]octane]",158
14,"C[C@H](NC(=O)[C@@H]1CCCN1C(=O)C1C2CCC(c3ccccc32)C1C(=O)NCC12CC3CC(CC(C3)C1)C2)C(=O)O (stereo partly drawn) [Example 51, cis-endo-7-(2S-(1S-carboxyethylaminocarbonyl)-pyrrolidinocarbonyl)-8-(1-adamantylmethylaminocarbonyl)-2,3-benzobicyclo[2.2.2]octane]",5010
15,"O=C(NCC12CC3CC(CC(C3)C1)C2)C1C2C=CC(c3ccccc32)C1C(=O)N1C[C@H](O)C[C@@H]1C(=O)O (stereo partly drawn) [Example 28, endo-cis-7-(2-R-carboxy-4-R-hydroxy-pyrrolidinocarbonyl)-8-(1-adamantylmethylaminocarbonyl)-5,6-benzo-bicyclo[2.2.2]oct-2-ene]",2000
16,"O=C(NCC1CCCCC1)[C@@H]1[C@H](C(=O)O)[C@@H]2C=C[C@H]1c1ccccc12 (relative stereo) [Example 3, exo-(±)-cis8-(1-cyclohexylmethylaminocarbonyl)-5,6-benzobicyclo[2.2.2]oct-2-ene-7-carboxylic acid]",25100
17,"CCCCCCCCNC(=O)[C@H]1[C@@H](C(=O)O)[C@@H]2C=C[C@H]1c1ccccc12 (relative stereo) [Example 6, endo-(±)-cis-8-(octylamino-carbonyl)-5,6-benzobicyclo[2.2.2]oct-2-ene-7-carboxylic acid]",25100
18,"O=C(O)C1C2c3ccccc3C(c3cc4ccccc4cc32)C1C(=O)NCC12CC3CC(CC(C3)C1)C2 (racemic) [Example 14, endo and exo cis-(±)-8-(1-adamantylmethylaminocarbonyl)-2,3-benzo-5,6-(2,3-naphtho)bicyclo[2.2.2]octane-7-carboxylic acid]",316
19,"C[C@@H](NC(=O)C[C@@H]1CCCN1C(=O)C1C2CCC(c3ccccc32)C1C(=O)NCC12CC3CC(CC(C3)C1)C2)C(=O)O (stereo partly drawn) [Example 52, cis-endo-7-(2S-(1R-carboxyethylaminocarbonylmethyl)-pyrrolidinocarbonyl)-8-(1-adamantylmethylaminocarbonyl)-2,3-benzobicyclo[2.2.2]octane]",100
20,"C[C@@H](NC(=O)[C@H]1CCCN1C(=O)C1C2CCC(c3ccccc32)C1C(=O)NCC12CC3CC(CC(C3)C1)C2)C(=O)O (stereo partly drawn) [Example 47, cis-endo-7-(2R-(1R-carboxyethylaminocarbonyl)-pyrrolidinocarbonyl)-8-(1-adamantylmethylaminocarbonyl)-2,3-benzobicyclo[2.2.2]octane]",1260
21,"CCCCCCCCNC(=O)[C@@H]1[C@H](C(=O)O)[C@@H]2C=C[C@H]1c1ccccc12 (relative stereo) [Example 5, exo-(±)-cis-8-(octylaminocarbonyl)-5,6-benzobicyclo[2.2.2]oct-2-ene-7-carboxylic acid]",12600
22,"O=C(O)CNC(=O)[C@@H]1CCCN1C(=O)C1C2CCC(c3ccccc32)C1C(=O)NCC12CC3CC(CC(C3)C1)C2 (stereo partly drawn) [Example 49, cis-endo-7-(2S-carboxymethylaminocarbonyl-pyrrolidinocarbonyl)-8-(1-adamantylmethylaminocarbonyl)-2,3-benzobicyclo[2.2.2]octane]",3980
